No end group written: not given here.

Among the targets are HLA-DR DRB1*0301 (DR3) (Homo sapiens, UniProt P01903+P01911, A100K/A102G/A103R/A169T/F55Y/I96L/K41T/L162R/M171V/P40S/Q125H/Q178H/Q39Y/R42S/S66N/T106N/T262R/W38E/Y61H); HLA-DR DRB1*0802 (DR8) (Homo sapiens, UniProt P01903+P01911, A100R/A103L/A169T/F76Y/H45Y/I96F/K41T/L162R/M171V/P40S/Q125H/Q178H/Q39Y/Q99D/R218S/R42G/S66Y/V115G/W38E); HLA-DR DRB3*0101 (DR52) (Homo sapiens, UniProt P01903+P79483).

What all share (experiment): biochemical
Holding throughout (assay type): binding

The next assay deals with HLA-DR DRB1*0101 (DR1) (Homo sapiens, UniProt P01903+P01911, A100R/D57E/F55L/F60I/F76Y/I96L/L162R/M171V/P40L/Q125E/R42F/V115G/Y59C). Conditions: DRB1 *0101.
The target of a further assay is HLA-DR DRB1*0401 (DR4) (Homo sapiens, UniProt P01903+P01911, A100K/A169T/F76Y/I96L/K127E/L162R/M171V/N62H/P40V/Q125Y/R42H/S133A/S149N/S66Y/V115G/V209L/W38E). Conditions: DRB1 *0401.
For another assay, the target named is HLA-DR DRB1*0701 (DR7) (Homo sapiens, UniProt P01903+P01911, A100R/A102G/A103Q/D57E/D86V/E43K/F76Y/K127E/L162R/M171V/P40G/Q125H/Q99D/R33Q/R42Y/R54Q/S133A/S66F/T210M/V115G/Y107V/Y59L/Y89S). Conditions: DRB1 *0701.
A further assay concerns the target HLA-DR DRB1*0901 (DR9) (Homo sapiens, UniProt P01903+P01911, A100R/A103E/D57H/D86V/F55Y/F60I/F76Y/I96F/K127E/L162R/M171V/P40D/Q125H/Q99R/R33Q/R42F/S133A/S66N/T210M/V115G/W38K/Y107V/Y59G/Y89S). Conditions: DRB1 *0901.
Another assay concerns the target HLA-DR DRB1*1101 (DR11) (Homo sapiens, UniProt P01903+P01911, A100R/A169T/A87E/I96F/K41T/L162R/M171V/P40S/Q125H/Q178H/Q39Y/Q99D/R42S/S66Y/T262R/V115G/W38E). Conditions: DRB1 *1101.
The next assay addresses HLA-DR DRB1*1302 (DR13) (Homo sapiens, UniProt P01903+P01911, A100E/A169T/K41T/L162R/M171V/P40S/Q125H/Q178H/Q39Y/Q99D/R42S/S66N/T262R/V115G/W38E/Y61H). Conditions: DRBI *1302.
Another assay concerns the target HLA-DR DRB1*1501 (DR15) (Homo sapiens, UniProt P01903+P01911). Conditions: DRBI *1501.
The target of a further assay is HLA-DR DRB4*0101 (DR53) (Homo sapiens, UniProt P01903+P13762, G164S). Conditions: DRB4 *0101.
For the next assay, the target named is HLA-DR DRB5*0101 (DR51) (Homo sapiens, UniProt P01903+Q30154). Conditions: DRB5 *0101.

Sequence of HLA-DR DRB1*1101 (DR11) (P01903 26-254 limits assumed, other chains not shown): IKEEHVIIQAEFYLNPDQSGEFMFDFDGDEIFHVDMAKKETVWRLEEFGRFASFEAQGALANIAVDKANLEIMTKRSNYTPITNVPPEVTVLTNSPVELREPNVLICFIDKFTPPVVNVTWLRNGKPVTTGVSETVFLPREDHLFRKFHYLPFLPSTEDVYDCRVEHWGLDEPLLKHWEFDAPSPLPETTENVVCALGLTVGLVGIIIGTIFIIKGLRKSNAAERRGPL
Sequence of HLA-DR DRB1*0301 (DR3) (P01903 26-254 limits assumed, other chains not shown): as above
Sequence of HLA-DR DRB1*1302 (DR13) (P01903 26-254 limits assumed, other chains not shown): as above

As for `CC[C@H](C)[C@H](NC(=O)[C@H](CO)NC(=O)[C@H](CO)NC(=O)[C@H](CC(=O)O)NC(=O)[C@H](C)NC(=O)[C@H](CC(N)=O)NC(=O)[C@@H](NC(=O)[C@H](Cc1ccc(O)cc1)NC(=O)[C@H](C)NC(=O)[C@@H](N)C(C)C)[C@@H](C)CC)C(=O)N[C@@H](CCC(=O)O)C(=O)NCC(=O)N[C@@H](CC(N)=O)C(=O)N[C@@H](Cc1ccc(O)cc1)C(=O)N[C@H](C(=O)O)[C@@H](C)O`, the IC50 came to 4720 nM at HLA-DR DRB1*0101 (DR1); 531 nM at HLA-DR DRB1*0301 (DR3); 411 nM against HLA-DR DRB1*0401 (DR4); 9740 nM against HLA-DR DRB1*0701 (DR7); 106000 nM at HLA-DR DRB1*0802 (DR8); 5470 nM against HLA-DR DRB1*0901 (DR9). Besides, the IC50 against HLA-DR DRB1*1101 (DR11) was over 18900 nM; at HLA-DR DRB1*1302 (DR13), 2150 nM; on HLA-DR DRB1*1501 (DR15), over 3490 nM; at HLA-DR DRB3*0101 (DR52), 471 nM; against HLA-DR DRB4*0101 (DR53), 841 nM; against HLA-DR DRB5*0101 (DR51), over 37800 nM.
Turning to `CC(C)C[C@H](NC(=O)[C@H](CO)NC(=O)[C@H](CC(C)C)NC(=O)[C@H](CO)NC(=O)[C@H](C)NC(=O)[C@H](C)NC(=O)[C@H](CCCNC(=N)N)NC(=O)[C@H](C)NC(=O)[C@H](CC(C)C)NC(=O)[C@H](CC(C)C)NC(=O)[C@H](CC(C)C)NC(=O)[C@@H]1CCCN1C(=O)[C@H](C)NC(=O)[C@H](C)N)C(=O)NCC(=O)O`, the IC50 at HLA-DR DRB1*0101 (DR1) turned out to be 6.8 nM; against HLA-DR DRB1*0301 (DR3), 35400 nM; at HLA-DR DRB1*0701 (DR7) it was 160 nM; against HLA-DR DRB1*0802 (DR8), 30 nM; on HLA-DR DRB1*0901 (DR9), 64 nM; against HLA-DR DRB1*1101 (DR11) it was 100 nM. For the same compound, the IC50 on HLA-DR DRB1*1302 (DR13) was 3.2 nM; against HLA-DR DRB1*1501 (DR15), 35 nM; on HLA-DR DRB3*0101 (DR52), 10500 nM; against HLA-DR DRB4*0101 (DR53), 79 nM; against HLA-DR DRB5*0101 (DR51) it was 79 nM.
Consider YLVTGERGFFYTPKT, for which the IC50 at HLA-DR DRB1*0101 (DR1) was 779 nM; against HLA-DR DRB1*0301 (DR3) it was 517 nM; against HLA-DR DRB1*0401 (DR4) it was over 20500 nM; at HLA-DR DRB1*0701 (DR7) it was 7740 nM; against HLA-DR DRB1*0802 (DR8), 29200 nM; against HLA-DR DRB1*0901 (DR9), 6300 nM. Moreover, the 50% inhibitory concentration (IC50) was 7620 nM on HLA-DR DRB1*1101 (DR11); 2100 nM against HLA-DR DRB1*1302 (DR13); over 25600 nM at HLA-DR DRB1*1501 (DR15); 13700 nM on HLA-DR DRB3*0101 (DR52); 20700 nM at HLA-DR DRB4*0101 (DR53); over 28400 nM at HLA-DR DRB5*0101 (DR51).
`CC[C@H](C)[C@H](NC(=O)[C@@H]1CCCN1C(=O)[C@@H](N)CC(N)=O)C(=O)N[C@@H](CC(C)C)C(=O)N[C@@H](CC(C)C)C(=O)N[C@@H](Cc1c[nH]c2ccccc12)C(=O)N[C@@H](CCC(N)=O)C(=O)N1CCC[C@H]1C(=O)N[C@H](C(=O)N1CCC[C@H]1C(=O)N[C@H](C(=O)N[C@@H](Cc1c[nH]cn1)C(=O)N[C@H](C(=O)N[C@H](C(=O)N1CCC[C@H]1C(=O)O)C(C)C)[C@@H](C)O)C(C)C)[C@@H](C)CC`: the concentration for half-maximal inhibition (IC50) against HLA-DR DRB1*0101 (DR1) was 31 nM; against HLA-DR DRB1*0301 (DR3), over 81800 nM; against HLA-DR DRB1*0401 (DR4) it was 206 nM; at HLA-DR DRB1*0701 (DR7), 41 nM; at HLA-DR DRB1*0802 (DR8) it was 13000 nM; against HLA-DR DRB1*0901 (DR9) it was 575 nM. Also, the concentration for half-maximal inhibition (IC50) was 599 nM on HLA-DR DRB1*1101 (DR11); 250 nM at HLA-DR DRB1*1302 (DR13); 4.6 nM against HLA-DR DRB1*1501 (DR15); over 8830 nM on HLA-DR DRB3*0101 (DR52); 67 nM at HLA-DR DRB4*0101 (DR53); 25000 nM on HLA-DR DRB5*0101 (DR51).
